Reference: patent US20150140043A1, “IMMUNOMODULATORY METHODS USING NOTCH AGONISTS” (INSTITUT NATIONAL DE LA SANTE DE LA RECHERCHE MEDICAL …, priority 2012, published 2015)

B1: DL-1: recombinant NOTCH ligand Delta-like 1, used coated as DL-1-Fc (SEQ ID NO: 8) (protein, listed as Homo sapiens)
chain: MGSRCALALAVLSALLCQVWSSGVFELKLQEFVNKKGLLGNRNCCRGGAGPPPCACRTFFRVCLKHYQASVSPEPPCTYGSAVTPVLGVDSFSLPDGGGADSAFSNPIRFPFGFTWPGTFSLIIEALHTDSPDDLATENPERLISRLATQRHLTVGEEWSQDLHSSGRTDLKYSYRFVCDEHYYGEGCSVFCRPRDDAFGHFTCGERGEKVCNPGWKGPYCTEPICLPGCDEQHGFCDKPGECKCRVGWQGRYCDECIRYPGCLHGTCQQPWQCNCQEGWGGLFCNQDLNYCTHHKPCKNGATCTNTGQGSYTCSCRPGYTGATCELGIDECDPSPCKNGGSCTDLENSYSCTCPPGFYGKICELSAMTCADGPCFNGGRCSDSPDGGYSCRCPVGYSGFNCEKKIDYCSSSPCSNGAKCVDLGDAYLCRCQAGFSGRHCDDNVDDCASSPCANGGTCRDGVNDFSCTCPPGYTGRNCSAPVSRCEHAPCHNGATCHERGHRYVCECARGYGGPNCQFLLPELPPGPAVVDLTEKLEGQGGPFPWVAVCAGVILVLMLLLGCAAVVVCVRLRLQKHRPPADPCRGETETMNNLANCQREKDISVSIIGATQIKNTNKKADFHGDHSADKNGFKARYPAVDYNLVQDLKGDDTAVRDAHSKRDTKCQPQGSSGEEKGTPTTLRGGEASERKRPDSGCSTSKDTKYQSVYVISEEKDECVIATEV

Experiments:
Assay type in all cases: cell-based, human
[1] = tested on: CD4+CD25- T cell proliferation; experiment: Sensitization of CD4+CD25- T cells to low-dose TGF-β (anti-CD3 plus NOTCH ligands, no Treg); conditions: anti-CD3 plus ligand (5 μg/ml), TGF-β 0.1 ng/ml, 5 days
Protocol: (§1) FIG. 2: NOTCH suppresses the proliferation of CD4^+CD25^− T cells through TGF-β • A) CD4^+CD25^−T cells were cultured for 5 days in coated wells with anti-CD3 and NOTCH ligands (5 μg/ml) or IgG control (5 μg/ml) in the presence of Treg at ratio 1:16. Anti-TGF-β or IgG control mAbs (2.5 μg/ml) were added at the beginning of the co-culture. The data represent the mean±SEM. * indicates P<0.05. • B) CD4^+CD25^−T cells were cultured for 5 days in coated wells with anti-CD3 and NOTCH ligands (5 μg/ml) or IgG control (5 μg/ml). Low dose of TGF-β (0.1 ng/ml) was added. The data represent the mean±SEM.
Peripheral blood mononuclear cells were separated by Ficoll-Hypaque centrifugation (Amersham Biosciences) from buffy coats obtained from healthy blood donors (EFS, Créteil). CD4^+ CD25^− T cells and CD4^+CD25^high T cells were isolated using a CD4^+ T cell enrichment column and a human CD4^+CD25^+ Treg isolation kit purchased from Miltenyi Biotec. CD4^+CD25^− cells and CD4^+CD25^+ cells were enriched to greater than 95% purity. Cells were plated in media at a concentration of 1.25×10^5 to 5×10^5 cells per ml in a 96-well round-bottom plates coated with 1 μg/ml of anti-CD3 (UCHT1) and 5 μg/ml of NOTCH Ligand (DL-1-Fc, DL-4-Fc and Jagged-1-Fc are a generous Gift from Dr. Sakano). […]

[2] = tested on: CD4+CD25- T cell proliferation; experiment: Sensitizing assay: cells pre-incubated with NOTCH ligands, washed, then cultured with anti-CD3 with or without Treg; conditions: for Percentage of inhibition of cell proliferation by Treg: CD4+CD25- T cells pre-exposed overnight to ligand (5 μg/ml), Treg ratio 1:8, 5 days anti-CD3, mean of 4 experiments; for Effect of exposure of Treg to ligand on Treg capacity to suppress CD4+CD25- proliferation: Treg exposed to ligand, anti-CD3 mAbs, data not shown
Protocol: FIG. 1: NOTCH signalling is involved in Treg mediated inhibition of anti-CD3 stimulated CD4^+CD25^− T cell proliferation • A) Various ratio of CD4^+CD25^− T cells and CD4^+CD25^high T cells were cultured for 5 days in coated wells with anti-CD3 (1 μg/ml) in the presence or not of inhibitor of g-secretase (GSI 10 μM). Percentages of inhibition were calculated from the raw data using the equations: 1—(mean cpm of co-culture wells divided by mean cpm of CD4^+CD25^− cells cultured alone)×100. The data represent the mean±SEM and are representative of 5 independent experiments. * indicates P<0.05. • B) CD4^+CD25^−T cells were cultured for 18 hours in coated wells with anti-CD3 and NOTCH ligands (5 μg/ml) or IgG control (5 μg/ml). Then, T cells were washed and incubated for 5 days in coated wells with anti-CD3 in the absence or presence of Treg at ratio 1:8. The data represent the mean±SEM of inhibition of T cell proliferation of 5 independent experiments.
(§2) Peripheral blood mononuclear cells were separated by Ficoll-Hypaque centrifugation (Amersham Biosciences) from buffy coats obtained from healthy blood donors (EFS, Créteil). CD4^+ CD25^− T cells and CD4^+CD25^high T cells were isolated using a CD4^+ T cell enrichment column and a human CD4^+CD25^+ Treg isolation kit purchased from Miltenyi Biotec. CD4^+CD25^− cells and CD4^+CD25^+ cells were enriched to greater than 95% purity. Cells were plated in media at a concentration of 1.25×10^5 to 5×10^5 cells per ml in a 96-well round-bottom plates coated with 1 μg/ml of anti-CD3 (UCHT1) and 5 μg/ml of NOTCH Ligand (DL-1-Fc, DL-4-Fc and Jagged-1-Fc are a generous Gift from Dr. Sakano).
A total of 2.5×10^4 CD4^+CD25^− T cells were cultured with various ratios of CD4^+CD25^high cells and 1 μg/ml of anti-CD3 for 5 days, in the presence or absence of 10 μm of the gamma-secretase inhibitor Compound E. A total of […] [^3H] thymidine (Amersham Pharmacia) was added to the wells during the last 16 hours of culture. The cells were then harvested and assessed for [^3H] thymidine incorporation using a liquid scintillation counter. Results were expressed as mean cpm of quadriplicate culture wells.
(§3) Percentage of inhibition was calculated as follows: 1−(mean cpm of co-culture wells divided by mean cpm of CD4^+CD25^− cells cultured alone)×100.
In sensitizing assays CD4^+CD25^− and CD4^+CD25^high were pre-incubated during 16 hours on coated NOTCH Ligand. Cells were also collected, washed and incubated alone or with Treg and stimulated as described above. Some experiments were performed in the presence of anti-TGF-β or IgG control (2.5 μg/ml). […]

[3] = tested on: CD4+CD25- T cell proliferation; experiment: Coculture of effector T cells and Treg at low ratio on immobilized NOTCH ligands, with or without anti-TGF-β; set-up: Mean inhibition of T cell proliferation / Mean inhibition of T cell proliferation in the presence of anti-TGF-β mAbs: unit of the concentration uncertain
Protocol: as §1, §2, §3
In sensitizing assays CD4^+CD25^− and CD4^+CD25^high were pre-incubated during 16 hours on coated NOTCH Ligand. Cells were also collected, washed and incubated alone or with Treg and stimulated as described above. Some experiments were performed in the presence of anti-TGF-β or IgG control (2.5 μg/ml).
The implication of NOTCH1 on effector T cell responses in the presence of Treg through a TGF-β signalling mechanism has not yet been elucidated. To test this, a coculture experiments of effector T cells and Treg at a low ratio (ratio 1:16) in the presence of immobilized NOTCH ligands DL1, DL4 and Jagged-1 or Ig controls at […] was performed. […]

Molecule | Percentage of inhibition of proliferation in the presence of TGF-β [1] [%] | Percentage of inhibition of cell proliferation by Treg [2] [%] | Effect of exposure of Treg to ligand on Treg capacity to suppress CD4+CD25- proliferation [2] | Mean inhibition of T cell proliferation in the presence of anti-TGF-β mAbs ([3]; coculture with Treg at ratio 1:16, immobilized ligand at 5 µg/mL, anti-TGF-β 2.5 µg/mL added at the beginning of the culture) [%] | Mean inhibition of T cell proliferation ([3]; coculture with Treg at ratio 1:16, immobilized ligand at 5 µg/mL, no anti-TGF-β) [%] | Effect of anti-TGF-β on coculture of Treg and ligand-treated effector T cells ([3]; Treg ratio 1:16, anti-TGF-β 2.5 μg/ml)
Jagged-1: recombinant NOTCH ligand Jagged-1, used coated as Jagged-1-Fc (SEQ ID NO: 5) | 87.8 | 65 | did not modify the Treg capacity | 19.3 | 65 | 
B1 | 42.9 | 64.8 | did not modify the Treg capacity |  |  | did not affect
